Test results as given in patent US9228209B2, “Method for producing triptolide” (priority 2009, dated 2016).

Experiments:
[1] = test system: transcription factor NFκB; assay: Test of NFκB inhibition (TNFα stimulation in HaCaT keratinocyte cells); format: cell-based, human
From the text: Transcription factor NFκB controls the expression of a large number of genes involved in inflammatory response regulation. Certain proinflammatory stimuli, such as tumor necrosis factor-α (TNFα), lead to NFκB activation, i.e., to its nuclear translocation. Consequently, NFκB will induce the transcription of proinflammatory genes coding for cytokines, chemokines, adhesion molecules, growth factors and inducible enzymes such as cyclooxygenase-2 (COX-2) and nitric oxide synthase (iNOS). NFκB plays a key role in the initiation and amplification of the inflammatory response. Certain chronic inflammatory diseases of the skin, such as atopic dermatitis or psoriasis, are characterized by deregulation of the expression of inflammation mediators expressed by keratinocytes. The anti-inflammatory activity of pure triptolide (TRP) in relation to that of plant cell culture extracts (IBO.18.134) with equivalent amounts of TRP is evaluated.
FIG. 6 represents the inhibition of various extracts on NFκB activation following TNFα stimulation in HaCaT keratinocyte cells. As a positive control, dexamethasone (2 μM), which inhibits NFκB activation by 36%, was used.

RAW264.7 cells = assay: NO2− production by RAW264.7 cells stimulated with LPS (Griess reagent); format: cell-based, murine; conditions: identical TRP concentrations; 1 μg/ml LPS, 24 hours
Method: To this end, the test selected was NO2^− production by RAW264.7 cells stimulated with lipopolysaccharides (LPS).
Briefly, RAW264.7 cells (murine macrophages) were seeded at 1.4·10^5 cells/cm^2. After 24 hours, the cells were incubated for 1 hour with various concentrations of the products to be tested and then stimulated for 24 hours with 1 μg/ml of LPS. NO2 concentration was estimated in the culture supernatants using the Griess reagent.
The results (FIG. 7) illustrate NO2^− production obtained under the various conditions specified above. The percent inhibition calculated in relation to the LPS control appears in each histogram. Lastly, IC50 was calculated from these values (in bold blue).

Row | Compound | inhibition of NFκB activation ([1]; from 8 nM to 83 nM, TNFα stimulation, HaCaT keratinocyte cells) | NFκB inhibition, PCC extract compared with pure triptolide ([1]; identical triptolide concentrations of 8 nM, 28 nM and 83 nM) | inhibition of nitrite production induced by LPS (RAW264.7 cells) | inhibition at 2 µM ([1]; Homo sapiens, HaCaT, read-out: inhibition of NFκB activation) [%]
1 | CC(C)[C@]12O[C@H]1[C@@H]1O[C@]13[C@]1(O[C@H]1C[C@H]1C4=C(CC[C@@]13C)C(=O)OC4)[C@@H]2O [triptolide, Triptolide] | inhibits in a dose-dependent manner | equivalent | inhibit nitrite production | 
2 | C[C@@H]1C[C@H]2[C@@H]3CCC4=CC(=O)C=C[C@]4(C)[C@@]3(F)[C@@H](O)C[C@]2(C)[C@@]1(O)C(=O)CO [dexamethasone] |  |  |  | 36
